This note sets out measurements from ChEMBL document CHEMBL3301451, “MMV Malaria Box gametocyte functional viability assay screening”.

Assay [1] has as its system Plasmodium berghei. The assay is described as follows: MMV: P. berghei-infected blood was withdrawn from mice by cardiac pucture before being immediately added to ookinete culture medium containing test compounds. 26 hr later, GFP-positive ookinetes were identified and counted by automated microscopy. All compounds were tested in 4 independent experiments and data presented here is the mean. In kind it is functional. Further details: concentration or dose not given beside the values.

Assay [2] has as its system Plasmodium berghei. The assay can be described thus: MMV: P. berghei-infected blood was withdrawn from mice by cardiac pucture before being immediately added to ookinete culture medium containing test compounds. 26 hr later, GFP-positive ookinetes were identified and counted by automated microscopy. All compounds were tested in 4 independent experiments and data presented here is the mean. IC50s determined for selected compounds. The format is functional, organism-based.

The subject of assay [3] is Plasmodium falciparum. The assay is described as follows: MMV: P. falciparum NF54 functionally mature Stage V gametocytes were incubated for 24 hr in the presence of the test compounds. Gamete formation was then triggered by addition of 2uM xantheurenic acid and temperature decrease to ~20C. Male gamete exflagellation was recorded and analysed by automated microscopy after 20 min. All compounds were tested in 4 independent experiments and data presented here is the mean. In kind it is functional. Also noted: concentration or dose not given beside the values.

Assay [4] has as its system Plasmodium falciparum. The assay can be described thus: MMV: P. falciparum NF54 functionally mature Stage V gametocytes were incubated for 24 hr in the presence of the test compounds. Gamete formation was then triggered by addition of 2uM xantheurenic acid and temperature decrease to ~20C. Female gamete formation was recorded 24 hr later by automated microscopy detection of surface labelling of female gametes with a Cy3-conjugated antibody reactive to Pfs25. All compounds were tested in 4 independent experiments and data presented here is the mean. The conditions noted are these: NF54, 24 h. The format is functional. Further details: concentration or dose not given beside the values.

The test system of assay [5] is Plasmodium falciparum. The assay can be described thus: MMV: P. falciparum NF54 functionally mature Stage V gametocytes were incubated for 24 hr in the presence of the test compounds. Gamete formation was then triggered by addition of 2uM xantheurenic acid and temperature decrease to ~20C. Male gamete exflagellation was recorded and analysed by automated microscopy after 20 min. All compounds were tested in 4 independent experiments and data presented here is the mean. IC50s determined for selected compounds. In kind it is functional, organism-based.

Assay [6] deals with Plasmodium falciparum. The assay is described as follows: MMV: P. falciparum NF54 functionally mature Stage V gametocytes were incubated for 24 hr in the presence of the test compounds. Gamete formation was then triggered by addition of 2uM xantheurenic acid and temperature decrease to ~20C. Female gamete formation was recorded 24 hr later by automated microscopy detection of surface labelling of female gametes with a Cy3-conjugated antibody reactive to Pfs25. All compounds were tested in 4 independent experiments and data presented here is the mean. IC50s determined for selected compounds. The format is functional, organism-based. The conditions noted are these: NF54, 24 h.

As usually defined, the inhibition is the relative decrease from the control value, in per cent. Broadly, the IC50 is the point on the concentration scale where inhibition reaches its midpoint. Take `CC1CC2=C(CC1CNCCCN(C)C)C(C)(C)CCC2` (configuration not stated): the inhibition in assay [1] was -10.78%; in assay [3], 62.3%; in assay [4] it was 56.1%. For the same molecule, the half-maximal inhibitory concentration (IC50) came to 6500 nM in assay [2], 139 nM in assay [5] and 189 nM in assay [6].
As to `OC1CCCCC1C1(NC(=S)Nc2ccccc2)CCCCC1` (configuration not stated), the inhibition is 14.01% in assay [1], 80.7% in assay [3] and 73.8% in assay [4]. The IC50 in assay [2] came to 16400 nM; in assay [5] it was 384 nM; in assay [6] it was 614 nM.
Consider `CCOC(=O)c1cn(CC)c2cc(N(C)CCc3ccc(OC)c(OC)c3)c(F)cc2c1=O`, for which the inhibition in assay [1] was 20.52%; in assay [3], 71.2%; in assay [4], -15%. For the same molecule, the IC50 in assay [5] was 45 nM; in assay [6] it was over 50000 nM.
For `CN(C)CCCNc1c2ccccc2nc2ccccc12`, the figures for the inhibition in assay [1], in assay [3] and in assay [4] were 96.2%, 97.5% and 24.6%, respectively. Besides, the IC50 in assay [2] was found to be 292 nM; in assay [5] it was 130 nM; in assay [6], 1070 nM.
In the case of `COc1cccc(NC(=O)[C@H](C(C)C)n2c(=O)[nH]c3ccccc3c2=O)c1`, the inhibition amounted to 58.53% in assay [1], 70.9% in assay [3] and 36.6% in assay [4]. Also, the figures for the concentration for half-maximal inhibition (IC50) in assay [2], in assay [5] and in assay [6] were 464 nM, 241 nM and 384 nM, respectively.
Regarding `OC1=C2C(=Nc3ccccc3SC2c2ccccc2)c2ccccc21` (configuration not stated), the figures for the inhibition in assay [1], in assay [3] and in assay [4] were 97.46%, 58.8% and -16.4%, respectively. The figures for the half-maximal inhibitory concentration (IC50) in assay [2], in assay [5] and in assay [6] were 12800 nM, 3240 nM and over 50000 nM, respectively.
`OC1=C2C(=Nc3ccccc3SC2c2ccc(Br)cc2)c2ccccc21` (configuration not stated): the inhibition in assay [1] was 56.77%; in assay [3] it was 62.9%; in assay [4] it was 8.27%. Besides, the half-inhibitory concentration (IC50) in assay [2] was 2270 nM; in assay [5], 3410 nM; in assay [6] it was over 50000 nM.
On to `O=C1c2ccccc2C2=Nc3ccccc3SC(c3cccc(F)c3)C12` (configuration not stated), for which the inhibition in assay [1] was 71.31%; in assay [3] it was 70.7%; in assay [4], 11%. Besides, the IC50 in assay [2] was 1060 nM; in assay [5], 2140 nM; in assay [6], over 50000 nM.
As to `CCn1c(CN2CCN(Cc3ccccc3)CC2)nc2cc(NC(=O)c3cccs3)ccc21`, the inhibition in assay [1] was 78.13%; in assay [3], 67.4%; in assay [4], -15.4%. Further, the IC50 in assay [2] is 487 nM; in assay [5], 288 nM; in assay [6], over 50000 nM.
Consider `COc1ccc(-c2cc3c(nn2)-c2ccccc2C3=O)cc1`, for which the inhibition in assay [1] is 2.461%; in assay [3] it was 71.3%; in assay [4], -5.89%. Also, the IC50 was 5760 nM in assay [2], 3710 nM in assay [5] and over 50000 nM in assay [6].
For `COc1ccccc1NC1=C(N2CCCCC2)C(=O)c2ccccc2C1=O`, the inhibition in assay [1] is -14.08%; in assay [3] it was 96.8%; in assay [4], -15.9%. Besides, the IC50 in assay [2] is 4250 nM; in assay [5], 96 nM; in assay [6], over 50000 nM.
On to `COc1ccc(C2c3ccc4ccccc4c3Oc3ncn(CCCN(C)C)c(=N)c32)cc1` (configuration not stated), for which the inhibition was -7.365% in assay [1], 83.6% in assay [3] and 27.3% in assay [4]. Further, the half-inhibitory concentration (IC50) is 3490 nM in assay [2], 183 nM in assay [5] and 473 nM in assay [6].
With `CN(C)c1ccc(C(O)(c2ccc(N(C)C)cc2)c2ccc(N(C)C)cc2)cc1` [METHYLROSANILINE], the inhibition turned out to be 62.53% in assay [1], 19.7% in assay [3] and 44.6% in assay [4]. Besides, the half-maximal inhibitory concentration (IC50) is 991 nM in assay [2], 977 nM in assay [5] and 446 nM in assay [6].
`CCOC(=O)c1ccc2nc(-c3ccccc3)cc(O)c2c1`: the inhibition came out at 27.95% in assay [1], 63.6% in assay [3] and 2.21% in assay [4]. Also, the IC50 in assay [2] is 208 nM; in assay [5] it was 237 nM; in assay [6] it was over 50000 nM.
Turning to `Cl.Clc1cc(Br)ccc1-c1ccc(CNCC2CCNCC2)o1`, the inhibition in assay [1] is -9.542%; in assay [3], 74.1%; in assay [4], 38.1%. Besides, the half-inhibitory concentration (IC50) came out at 7820 nM in assay [2], 25.5 nM in assay [5] and 159 nM in assay [6].
For `CCOC(=O)c1cnc2ccc(CC)cc2c1O`, the inhibition in assay [1] came out at 97.88%; in assay [3] it was 65.8%; in assay [4] it was 9.93%. Also, the IC50 in assay [2] was 287 nM; in assay [5], 570 nM; in assay [6] it was over 50000 nM.
Turning to `COc1ccc(C=C2SC(=N)N(c3ccccc3OC)C2=O)cc1`, the inhibition in assay [1] is 72.74%; in assay [3], 77.3%; in assay [4] it was -7.34%. Moreover, the half-inhibitory concentration (IC50) in assay [2] was 96.2 nM; in assay [5], 481 nM; in assay [6], over 50000 nM.
Turning to `COc1ccc2c(c1)C1(Nc3ccccc3-c3nc4ccccc4n31)C(=O)N2` (configuration not stated), the inhibition amounted to 54.64% in assay [1], 48.2% in assay [3] and 24% in assay [4]. The IC50 came out at 2900 nM in assay [5] and 6450 nM in assay [6].
Consider `CCOC(=O)c1cn(CC)c2cc(N3CCCCC3)c(F)cc2c1=O`, for which the inhibition in assay [1] was 41.89%; in assay [3], 92.4%; in assay [4], -15.2%. Further, the IC50 in assay [2] is 2190 nM; in assay [5] it was 365 nM; in assay [6], over 50000 nM.
In the case of `Cc1cc(C)c2c(c1)OCN(Cc1ccccc1Cl)C2`, the inhibition in assay [1] is -11.06%; in assay [3], 25.8%; in assay [4], -10%.
In the case of `c1ccc(Cn2c(N=Nc3c(Nc4ccccc4)ccc4ccccc34)nc3ccccc32)cc1`, the inhibition in assay [1] is 7.124%; in assay [3] it was -0.509%; in assay [4] it was 7.17%.
On the same counts, the results for `CCOc1cc2c(cc1OCC)C(c1cc(OC)c(O)cc1Cl)NCC2` (configuration not stated) are -21.67%, 19.6% and -6.96%.
On the same counts, the results for `CN(C)c1ccc(C=Cc2nc(=O)c3ccccc3o2)cc1` are 54.94%, 17.6% and -16.7%.
The like results for `OC(CNC1CCCC1)Cn1c2ccccc2c2ccccc21` (configuration not stated) were, in that order, -16.75%, -4.27% and 12.4%.
